Results: US12178830B2, “Compositions and methods for adoptive cell therapy for cancer” (MEMORIAL SLOAN KETTERING CANCER CENTER, priority 2017, dated 2024)
“And” between values parts separate entries of the source, which are not always exact repeats. Equal entries are not always repeated. Where two headings read alike, the source gives them in different places.

How the values were obtained:
[1] = system: hepatocellular carcinoma HepG2; experiment: CellTitre Glo in vitro cytotoxicity, HepG2; assay type: cell-based
Procedure: This example describes the synthesis of exemplary prodrugs based on sulfamoyladenosine (AMS) (structure 1c) (FIG. 2C) for cleavage by the bacterial hydrolase enzyme CPG2. AMS is a close analog of nucleocidin and a potent cytotoxic molecule (HepG2 IC50=9 nM). […] Based on these SAR data, AMS prodrug 1a (“P-AMS”; FIG. 2C) was synthesized from 2′,3′-O-isopropylidene-5′-O-TBS-adenosine (structure 3, FIG. 2D) by 6-N-acylation with CDI-activated bis-O-t-Bu-glutamate (30%), desilylation (TBAF), sulfamoylation (H2NSO2C1, DMA), and acetonide hydrolysis (TFA, H2O, 15% over 3 steps). Two alternative N-sulfamate-linked prodrugs (not shown) attached via CO-PAB-CO and TML-CO linkers were synthesized (FIG. 2B). A more detailed discussion of the P-AMS synthesis and the synthesis of the N-sulfamate-linked prodrug attached via a TML-CO linker (“Trimethyllock-AMS”) is provided below in this example. As an alternative cytotoxic using a known anticancer therapeutic, the mustard prodrug ZD2767P (structure 2a, FIG. 2C) was also synthesized as previously reported (Springer et al., J Med Chem. 37(15):2361-70(1994) and Niculescu-Duvaz et al., Tetrahedron Lett. 46(40):6919-22 (2005)).
(§1) In vitro cytotoxicity of AMS-related structures was also assessed to determine the modifications of AMS that alter cytotoxicity. The in vitro cytotoxicity of each of these AMS-related structures was tested against both hepatocellular carcinoma HepG2 and normal human fibroblast MRC5 cell lines using a CellTitre Glo® assay (Promega, Madison, WI) The modifications and results are provided in Table 1 below.

[2] = system: normal human fibroblast MRC5; experiment: CellTitre Glo in vitro cytotoxicity, MRC5; assay type: cell-based
Procedure: as §1

[3] = Cell permeability in CACO-2 cells; assay type: in vitro ADME, human; conditions: human
[4] = system: non-small cell lung carcinoma cell line PC9; experiment: CellTitre-Glo viability, PC9; assay type: cell-based, human
Procedure: FIG. 14 provides exemplary data showing that Human T cells, but not cancer cells, are resistant to Erlotinib. (A) Human Jurkat T cells (red circle) and human non-small cell lung carcinoma cell lines PC9 (black square) and HCC827 (blue triangle) were treated with increasing concentrations of the receptor tyrosine kinase inhibitor Erlotinib. […] Cell viability was measured at 48 hours by CellTitre-Glo® luminescence.
FIG. 14 provides exemplary data showing that Human T cells, but not cancer cells, are resistant to Erlotinib. Human Jurkat T cells, primary T cells and human non-small cell lung carcinoma cell lines PC9 and HCC827 were treated with increasing concentrations of the receptor tyrosine kinase inhibitor Erlotinib. […] PC9 cells were incubated in the presence of Erlotinib, P-Erlotinib, or P-Erlotinib in the presence of purified CPG2. Cell viability was measured at 48 hours by CellTitre-Glo® luminescence.

[5] = system: lung adenocarcinoma cells (HCC827); experiment: Co-culture of GFP+ 293tCPGTM cells with HCC827 plus erlotinib prodrug; assay type: cell-based; conditions: 293tCPGTM:HCC827 various ratios, 120 hr
Procedure: FIG. 15 provides exemplary data showing the pro-drug activity of 293T cells expressing transmembrane CPG2. GFP+293t^CPGTM cells were co-cultured with lung adenocarcinoma cells (HCC827) at various ratios (293t^CPGTM:HCC827) and the erlotinib prodrug (p-erlotinib) was added. (A) Cells were analyzed at 120 hour by flow cytometry and % GFP was calculated. (B) Ratio of 293t^CPGTM cells to HCC827 cells was calculated for each cell ratio.
The retroviral constructs encoding the anti-CD19 CAR and transmembrane CPG2 enzyme described above were transduced into 293T cells to test the conversion activity of transmembrane CPG2 for an Erlotinib prodrug. GFP+293t^CPGTM cells were co-cultured with lung adenocarcinoma cells (HCC827) at various ratios (293t^CPGTM:HCC827) and the erlotinib prodrug (p-erlotinib) was added. Cells were analyzed at 120 hr. by flow cytometry (FIG. 15A) and the percentage of GFP cells and the ratio of 293t^CPGTM cells to HCC827 cells was calculated for each cell ratio (FIG. 15B).

[6] = system: HEK293T (kidney); experiment: CellTitre Glo in vitro cytotoxicity, HEK293T; assay type: cell-based, human
[7] = system: HL 60 (leukemia); experiment: CellTitre Glo in vitro cytotoxicity, HL 60; assay type: cell-based
Procedure: (§2) The in vitro cytotoxicity of AMS (structure 1c) and its prodrug variant (structure 1a) was tested against a variety of cell lines using a CellTitre Glo® assay (Promega, Madison, WI). […] Moreover, co-treatment with the prodrug and supernatant from CPG2-transfected HEK293T cells (see Example 3) led to cytotoxicity approaching that of the free drug (50 nM), consistent with CPG2-mediated cleavage of the prodrug to release the active parent drug. […] In contrast, AMS prodrug 1a was not activated by HEK293T cells expressing CPG intracellularly, which likely attributed to poor cell-penetrance of the prodrug due to the free bis-anionic gluatamate moiety.

[8] = system: Jurkat (T cell); experiment: CellTitre Glo in vitro cytotoxicity, Jurkat; assay type: cell-based, human
[9] = system: primary T-cells; experiment: CellTitre Glo in vitro cytotoxicity, primary T cells; assay type: cell-based, human
[10] = system: Jurkat T cells; experiment: Jurkat viability with prodrug plus supernatant from CPG2-secreting HEK293T cells; assay type: cell-based, human
Procedure: as §2
Jurkat T cells were exposed to increasing concentrations of AMS (circle) or Pro-AMS with media alone (triangle) or supernatant from CPG2-secreting HEK293T cells (square). Cell viability was measured at 48 hours by CellTitre-Glo® luminescence assay.
Jurkat T cells were exposed to increasing concentrations of ZD2767P with media alone (triangle) or supernatant from CPG2-secreting HEK293T cells (square). Cell viability was measured at 48 hours by CellTitre-Glo® luminescence assay.

[11] = system: myeloid leukemia cell line SET2; experiment: CellTitre Glo in vitro cytotoxicity, SET2; assay type: cell-based; conditions: Set2; prodrug vs AMS
[12] = system: SET2 cells; experiment: SET2 viability with prodrug plus recombinant enzyme or enzyme-containing supernatant; assay type: cell-based; conditions: Beta-lactamase supernatant; control media did not
Procedure: Recombinant CPG2 protein was initially synthesized, purified (FIGS. 18A and 18B), and incubated with increasing concentrations of prodrug in a glutamate release assay (FIG. 17C). Mass spectrometry was used to determine that the glutamate moiety was released from all of the glutamate prodrugs. The in vitro cytotoxicity of the prodrugs (FIG. 17B) were tested against the myeloid leukemia cell line SET2 using a CellTitre Glo® assay (Promega, Madison, WI).
SET2 cells were exposed to increasing concentrations of AMS (square) or glut-AMS with media alone (− control, triangle) or supernatant from CPG2-secreting HEK293t cells (circle). Cell viability was measured by CellTitre-Glo® luminescence assay.
Thus, antigen-dependent expansion of SEAKER T cells results in increased output of enzyme into the extracellular milieu.
To determine to respective enzyme output of the Beta-lactamase constructs relative to the previous CPG2 constructs, a quantitative sandwich ELISA was used to determine the concentration (ng/mL) of purified recombinant CPG2, and a quantitative nitrocefin assay was used to determine the concentration (ng/mL) of purified recombinant Beta-lactamase (FIG. 25A). Cell viability was measured by CellTitre-Glo® luminescence in the presence of prodrug (glut-AMS or ceph-AMS) and varying concentrations of purified recombinant CPG2 or Beta-lactamase (FIG. 25B).

[13] = system: non-small cell lung carcinoma cell line HCC827; experiment: CellTitre-Glo viability, HCC827; assay type: cell-based, human; conditions: HCC827, 48 hours
Procedure: Human Jurkat T cells, primary T cells and human non-small cell lung carcinoma cell lines PC9 and HCC827 were treated with increasing concentrations of the receptor tyrosine kinase inhibitor Erlotinib. […] Cell viability was measured at 48 hours by CellTitre-Glo® luminescence.

[14] = Caco-2, with Ver (so in the source), concentration not stated, + Ver

SMILES	IC50 ([1]; read-out: IC50, HepG2)	IC50 [2]	further results
COc1ncnc2c1ncn2[C@@H]1O[C@H](COS(N)(=O)=O)[C@@H](O)[C@H]1O [6-OMe-AMS]	141 µM	129 µM	
Nc1nc(-c2ccccc2)nc2c1ncn2[C@@H]1O[C@H](COS(N)(=O)=O)[C@@H](O)[C@H]1O [2-phenyl-AMS]	~500 µM	> 500 µM	
CCCc1nc2c(N)ncnc2n1[C@@H]1O[C@H](COS(N)(=O)=O)[C@@H](O)[C@H]1O [8-propyl-AMS]	> 500 µM	> 500 µM	
CN(C)C(=O)C(CCN1CCC(O)(c2ccc(Cl)cc2)CC1)(c1ccccc1)c1ccccc1 [Loperamide]			Papp A→B [3, 14]: 10.5 ± 1.5 ×10⁻⁶ cm/s; Papp B→A [3, 14]: 7.8 ± 0.5 ×10⁻⁶ cm/s; Papp A→B ([3]; Caco-2): 2.2 ± 0.3 ×10⁻⁶ cm/s; Papp B→A ([3]; Caco-2): 16.9 ± 1.1 ×10⁻⁶ cm/s
C#Cc1cccc(N(Cc2ccc(NC(=O)N[C@@H](CCC(=O)O)C(=O)O)cc2)c2ncnc3cc(OCCOC)c(OCCOC)cc23)c1 [P-Erlotinib, ((4-(((6,7-bis(2-methoxyethoxy)quinazolin-4-yl)(3-ethynylphenyl)amino)methyl)phenyl)carbamoyl)-L-glutamic acid]			toxicity in PC9 cells ([4]; 1 μM, without CPG2, 48 hours): no toxicity; activity of cleaved prodrug in PC9 cells ([4]; in the presence of purified CPG2, 48 hours): comparable activity to the active drug; killing in co-culture with transmembrane CPG2 cells [5]: kills the target cancer cell, but not the cell secreting the enzyme
Nc1nc2c(ncn2[C@@H]2O[C@H](COS(N)(=O)=O)[C@@H](O)[C@H]2O)c(=O)[nH]1 [GMS]	> 500 µM	> 500 µM	
Nc1ncnc2c1ncn2[C@@H]1O[C@H](COS(N)(=O)=O)[C@@H](O)[C@H]1O [AMS]		0.03 µM	IC50 ([1]; read-out: HepG2 IC50): 0.009 µM; IC50 ([6]; HEK293T, read-out: IC50): 0.666 µM; IC50 [7]: 0.07 µM; IC50 ([8]; Jurkat, read-out: IC50): 0.018 µM; IC50 ([9]; primary T-cells, read-out: IC50): 0.066 µM
CNc1ncnc2c1ncn2[C@@H]1O[C@H](COS(N)(=O)=O)[C@@H](O)[C@H]1O [6-NHMe-AMS]	1.8 µM	0.9 µM	
Nc1ncnc2c1ncn2[C@@H]1O[C@H](CNS(N)(=O)=O)[C@@H](O)[C@H]1O [AMSN]	0.36 µM	0.39 µM	
NS(=O)(=O)OC[C@H]1O[C@@H](n2ccc(=O)[nH]c2=O)[C@H](O)[C@@H]1O [UMS]	> 500 µM	> 500 µM	
Nc1ncnc2c1ncn2[C@H]1C[C@H](O)[C@@H](COS(N)(=O)=O)O1 [2′-deoxy-AMS]	< 1 µM and 0.55 µM		
Cc1cn([C@H]2C[C@H](O)[C@@H](COS(N)(=O)=O)O2)c(=O)[nH]c1=O [TMS]	> 500 µM	> 500 µM	
Nc1ncnc2c1nc(Cl)n2[C@@H]1O[C@H](COS(N)(=O)=O)[C@@H](O)[C@H]1O [8-Cl-AMS]		3.2 µM and 3.51 µM	
O=C(O)CC[C@H](NC(=O)Oc1ccc(N(CCI)CCI)cc1)C(=O)O [ZD2767P]			cell viability with prodrug and CPG2 supernatant ([10]; increasing prodrug, 48 hours, supernatant from CPG2-secreting HEK293T cells): significant decrease in cell viability; IC50 ([10]; with CPG2 supernatant): 1.7 µM
CN(C)c1ncnc2c1ncn2[C@@H]1O[C@H](COS(N)(=O)=O)[C@@H](O)[C@H]1O [6-NMe2-AMS]	> 500 µM	> 500 µM	
Nc1ccn([C@@H]2O[C@H](COS(N)(=O)=O)[C@@H](O)[C@H]2O)c(=O)n1 [CMS]	> 500 µM	> 500 µM	
Nc1nc(N)c2ncn([C@@H]3O[C@H](COS(N)(=O)=O)[C@@H](O)[C@H]3O)c2n1 [2-NH2-AMS]	< 1 µM and 1.75 µM	< 1 µM and 1.17 µM	
Nc1ncnc2c1ncn2[C@@H]1O[C@H](COS(=O)(=O)NCC2=C(C(=O)O)N3C(=O)[C@@H](NC(=O)Cc4cccs4)[C@H]3SC2)[C@@H](O)[C@H]1O [ceph-AMS]			Selective Index ([6]; HEK293t, prodrug vs AMS): ~3; Selective Index ([9]; Human T cell, prodrug vs AMS): >6; Selective Index [11]: ~64; SET2 cell viability with prodrug and Beta-lactamase supernatant [12]: significant decrease in cell viability
NS(=O)(=O)OC[C@H]1O[C@@H](n2cnc3c(NC4CC4)ncnc32)[C@H](O)[C@@H]1O [6-NCyp-AMS]	10.9 µM	7.2 µM	
C#Cc1cccc(Nc2ncnc3cc(OCCOC)c(OCCOC)cc23)c1 [Erlotinib, reference compound]			response to increasing concentrations ([8]; T cell lines (Jurkat), 48 hours): exhibited resistance; response to increasing concentrations ([9]; primary T cells): exhibited resistance; response to increasing concentrations ([4]; PC9, 48 hours): significant cell death; response to increasing concentrations [13]: significant cell death
NS(=O)(=O)OC[C@H]1O[C@@H](n2cnc3c(O)ncnc32)[C@H](O)[C@@H]1O [IMS]	> 500 µM	> 500 µM	
Nc1nc(Nc2ccccc2)nc2c1ncn2[C@@H]1O[C@H](COS(N)(=O)=O)[C@@H](O)[C@H]1O [2-NHPh-AMS]	> 500 µM	124 µM	
